Drawing on US10106534B2 (CELGENE QUANTICEL RESEARCH, INC., priority 2014, dated 2018), this text covers IC50 for 27 molecules.

One may read the IC50 as the point on the concentration scale where inhibition reaches its midpoint. A low value points to greater potency in that assay.

In experiment [1] the test system is KYSE-150 esophageal carcinoma cell line. Nature of the experiment: In vitro cell-based assay: cellular proliferation via BrdU incorporation (ELISA). To be noted: Homo sapiens, KYSE-150, 168 hours compound incubation. Further details: species or system human. The gist of the method: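 KYSE-150 cells (JMJD2C-amplified; SMAD4 and TP53 mutant), 2,000/well, were treated after overnight attachment with an 11-point series (100 μM to 2 nM) for 168 h. Proliferation was read by BrdU ELISA (2 h labelling, anti-BrdU-peroxidase, TMB, 450 nm) and IC50 fitted.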
In general terms: Uptake of a labelled nucleoside into DNA is a usual measure of proliferation.

In another experiment the target is JMJD2C (Homo sapiens (Human), UniProt Q9H3R0). Briefly: In vitro enzyme inhibition assay for JMJD2C activity (TR-FRET). The experiment is classed as biochemical. The gist of the method: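 Baculovirus JMJD2C (AA 2-372), 0.3 nM, with 300 nM biotin-H3K9me3 peptide and 2 μM α-ketoglutarate in HEPES pH 7.3 containing Fe(II) and ascorbate, 30 min at room temperature, 11-point dilutions. H3K9me2 product by TR-FRET (Eu-antibody/streptavidin-APC, 665/615 ratio); IC50 fitted.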
Sequence of JMJD2C (Q9H3R0 2-372): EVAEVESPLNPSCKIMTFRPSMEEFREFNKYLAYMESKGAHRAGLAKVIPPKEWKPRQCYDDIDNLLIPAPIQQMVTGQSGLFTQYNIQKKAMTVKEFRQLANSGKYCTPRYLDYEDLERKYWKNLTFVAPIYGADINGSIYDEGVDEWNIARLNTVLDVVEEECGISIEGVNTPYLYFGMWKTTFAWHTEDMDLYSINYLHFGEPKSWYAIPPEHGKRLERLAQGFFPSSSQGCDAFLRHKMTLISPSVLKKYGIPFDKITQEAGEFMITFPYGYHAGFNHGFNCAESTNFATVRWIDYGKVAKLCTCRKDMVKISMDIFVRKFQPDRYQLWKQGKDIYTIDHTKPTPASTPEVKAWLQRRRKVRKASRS

Turning to `Cc1ccccc1Sc1ccc2c(c1)CCC[C@H]2CNc1cnccc1C(=O)O` [Example 71, 3-({[(1R)-6-[(2-methylphenyl)sulfanyl]-1,2,3,4-tetrahydronaphthalen-1-yl]methyl}amino)pyridine-4-carboxylic acid], the IC50 was 100 to 1000 nM in experiment [1] and 1000 to 10000 nM against JMJD2C.
For `CN(c1ccc2c(c1)COC2)c1ccc2c(c1)CCC[C@H]2CNc1cnccc1C(=O)O` [Example 132, 3-({[(1R)-6-[(1,3-dihydro-2-benzofuran-5-yl)(methyl)amino]-1,2,3,4-tetrahydronaphthalen-1-yl]methyl}amino)pyridine-4-carboxylic acid], in that order: not above 100 nM and 100 to 1000 nM.
Turning to `CC(c1ccccc1)c1ccc2c(c1)OCC[C@H]2CNc1cnccc1C(=O)O` (stereo partly drawn) [Example 198, 3-({[(4R)-7-(1-phenylethyl)-3,4-dihydro-2H-1-benzopyran-4-yl]methyl}amino)pyridine-4-carboxylic acid], the figures for the IC50 (in experiment [1]; at JMJD2C) were not above 100 nM and 100 to 1000 nM, respectively.
For `COc1cc2c(cc1C)C(CNc1cnccc1C(=O)O)CCC2` (stereo not drawn) [Example 94, 3-{[(6-methoxy-7-methyl-1,2,3,4-tetrahydronaphthalen-1-yl)methyl]amino}pyridine-4-carboxylic acid], in that order: 100 to 1000 nM and 100 to 1000 nM.
Consider `O=C(O)c1ccncc1NCC1CCCc2cc(C3CCOCC3)ccc21` (stereo not drawn) [Example 88, 3-({[6-(oxan-4-yl)-1,2,3,4-tetrahydronaphthalen-1-yl]methyl}amino)pyridine-4-carboxylic acid], for which the IC50 is more than 10000 nM in experiment [1] and 100 to 1000 nM against JMJD2C.
As to `Cc1ccc(Sc2ccc3c(c2)CCC[C@H]3CNc2cnccc2C(=O)O)cc1` [Example 79, 3-({[(1R)-6-[(4-methylphenyl)sulfanyl]-1,2,3,4-tetrahydronaphthalen-1-yl]methyl}amino)pyridine-4-carboxylic acid], the IC50 in experiment [1] is not above 100 nM; against JMJD2C, 1000 to 10000 nM.
As to `O=C(O)c1ccncc1NC[C@@H]1CCCc2cc(S(=O)(=O)c3ccccc3)ccc21` [Example 82, 3-({[(1R)-6-(benzenesulfonyl)-1,2,3,4-tetrahydronaphthalen-1-yl]methyl}amino)pyridine-4-carboxylic acid], the IC50 in experiment [1] was more than 10000 nM; on JMJD2C, 100 to 1000 nM.
For `O=C(O)c1ccncc1NC[C@@H]1CCOc2cc(-c3cccc(F)c3Cl)ccc21` [Example 44, 3-({[(4R)-7-(2-chloro-3-fluorophenyl)-3,4-dihydro-2H-1-benzopyran-4-yl]methyl}amino)pyridine-4-carboxylic acid], in that order: 100 to 1000 nM and 100 to 1000 nM.
In the case of `CN(c1cccc(C#N)c1)c1ccc2c(c1)OCC[C@H]2CNc1cnccc1C(=O)O` [Example 117, 3-({[(4R)-7-[(3-cyanophenyl)(methyl)amino]-3,4-dihydro-2H-1-benzopyran-4-yl]methyl}amino)pyridine-4-carboxylic acid], the half-inhibitory concentration (IC50) (in experiment [1]; against JMJD2C) was 100 to 1000 nM in each case.
Consider `O=C(O)c1ccncc1NC[C@@H]1CCOc2cc(C3(c4ccccc4)CC3)ccc21` [Example 203, 3-({[(4R)-7-(1-phenylcyclopropyl)-3,4-dihydro-2H-1-benzopyran-4-yl]methyl}amino)pyridine-4-carboxylic acid], for which the IC50 (in experiment [1]; at JMJD2C) was 100 to 1000 nM in each case.
Regarding `O=C(O)c1ccncc1NC[C@@H]1CCOc2cc(-c3cc(F)ccc3Cl)ccc21` [Example 45, 3-({[(4R)-7-(2-chloro-5-fluorophenyl)-3,4-dihydro-2H-1-benzopyran-4-yl]methyl}amino)pyridine-4-carboxylic acid], the IC50 (in experiment [1]; against JMJD2C) was 100 to 1000 nM throughout.
`Cc1c(F)cccc1-c1ccc2c(c1)OCC[C@H]2CNc1cnccc1C(=O)O` [Example 42, 3-({[(4R)-7-(3-fluoro-2-methylphenyl)-3,4-dihydro-2H-1-benzopyran-4-yl]methyl}amino)pyridine-4-carboxylic acid]: the 50% inhibitory concentration (IC50) (in experiment [1]; against JMJD2C) was 100 to 1000 nM in each case.
In the case of `CN(c1ccc(C2CCOCC2)cc1)c1ccc2c(c1)CCC[C@H]2CNc1cnccc1C(=O)O` [Example 175, 3-({[(1R)-6-{methyl[4-(oxan-4-yl)phenyl]amino}-1,2,3,4-tetrahydronaphthalen-1-yl]methyl}amino)pyridine-4-carboxylic acid], the values for the IC50 (in experiment [1]; at JMJD2C) were not above 100 nM and 1000 to 10000 nM, respectively.
For `O=C(O)c1ccncc1NC[C@@H]1CCCc2cc(OC(F)F)ccc21` [Example 61, 3-({[(1R)-6-(difluoromethoxy)-1,2,3,4-tetrahydronaphthalen-1-yl]methyl}amino)pyridine-4-carboxylic acid], in that order: 1000 to 10000 nM and 100 to 1000 nM.
In the case of `CN(c1ccc2c(c1)OCC[C@H]2CNc1cnccc1C(=O)O)c1ccc(F)cc1F` [Example 104, 3-({[(4R)-7-[(2,4-difluorophenyl)(methyl)amino]-3,4-dihydro-2H-1-benzopyran-4-yl]methyl}amino)pyridine-4-carboxylic acid], the IC50 (in experiment [1]; at JMJD2C) was 100 to 1000 nM in each case.
Turning to `Cc1cc(N(C)c2ccc3c(c2)CCC[C@H]3CNc2cnccc2C(=O)O)no1` [Example 171, 3-({[(1R)-6-[methyl(5-methyl-1,2-oxazol-3-yl)amino]-1,2,3,4-tetrahydronaphthalen-1-yl]methyl}amino)pyridine-4-carboxylic acid], the IC50 in experiment [1] was more than 10000 nM; against JMJD2C, 1000 to 10000 nM.
Take `O=C(O)c1ccncc1NC[C@@H]1CCCc2cc(Oc3ccccc3Cl)ccc21` [Example 67, 3-({[(1R)-6-(2-chlorophenoxy)-1,2,3,4-tetrahydronaphthalen-1-yl]methyl}amino)pyridine-4-carboxylic acid]: the half-maximal inhibitory concentration (IC50) (in experiment [1]; on JMJD2C) was 100 to 1000 nM in each case.
For `CN(c1ccc(C2=CCOCC2)cc1)c1ccc2c(c1)CCC[C@H]2CNc1cnccc1C(=O)O` [Example 174, 3-({[(1R)-6-{[4-(3,6-dihydro-2H-pyran-4-yl)phenyl](methyl)amino}-1,2,3,4-tetrahydronaphthalen-1-yl]methyl}amino)pyridine-4-carboxylic acid], the IC50 is not above 100 nM in experiment [1] and 1000 to 10000 nM at JMJD2C.
As to `CN1CCC(c2ccc(N(C)c3ccc4c(c3)OCC[C@H]4CNc3cnccc3C(=O)O)cc2)CC1` [Example 205, 3-({[(4R)-7-{methyl[4-(1-methylpiperidin-4-yl)phenyl]amino}-3,4-dihydro-2H-1-benzopyran-4-yl]methyl}amino)pyridine-4-carboxylic acid], the values for the IC50 (in experiment [1]; at JMJD2C) were more than 10000 nM and not above 100 nM, respectively.
For `Cc1ccc(N(C)c2ccc3c(c2)OCC[C@H]3CNc2cnccc2C(=O)O)cc1C` [Example 206, 3-({[(4R)-7-[(3,4-dimethylphenyl)(methyl)amino]-3,4-dihydro-2H-1-benzopyran-4-yl]methyl}amino)pyridine-4-carboxylic acid], in that order: not above 100 nM and 100 to 1000 nM.
For `CN(c1ccc2c(c1)COC2)c1ccc2c(c1)OCC[C@H]2CNc1cnccc1C(=O)O` [Example 127, 3-({[(4R)-7-[(1,3-dihydro-2-benzofuran-5-yl)(methyl)amino]-3,4-dihydro-2H-1-benzopyran-4-yl]methyl}amino)pyridine-4-carboxylic acid], in that order: 100 to 1000 nM and 100 to 1000 nM.
As to `O=C(O)c1ccncc1NC[C@@H]1CCCc2cc(Oc3ccc(F)cc3F)ccc21` [Example 65, 3-({[(1R)-6-(2,4-difluorophenoxy)-1,2,3,4-tetrahydronaphthalen-1-yl]methyl}amino)pyridine-4-carboxylic acid], the concentration for half-maximal inhibition (IC50) (in experiment [1]; on JMJD2C) was 100 to 1000 nM throughout.
Take `CN(c1ccc2c(c1)OCC[C@H]2CNc1cnccc1C(=O)O)c1ccc2occc2c1` [Example 136, 3-({[(4R)-7-[(1-benzofuran-5-yl)(methyl)amino]-3,4-dihydro-2H-1-benzopyran-4-yl]methyl}amino)pyridine-4-carboxylic acid]: the results for the IC50 (in experiment [1]; against JMJD2C) were not above 100 nM and 100 to 1000 nM, respectively.
As for `CN1CC=C(c2ccc(N(C)c3ccc4c(c3)OCC[C@H]4CNc3cnccc3C(=O)O)cc2)CC1` [Example 204, 3-({[(4R)-7-{methyl[4-(1-methyl-1,2,3,6-tetrahydropyridin-4-yl)phenyl]amino}-3,4-dihydro-2H-1-benzopyran-4-yl]methyl}amino)pyridine-4-carboxylic acid], the IC50 in experiment [1] was more than 10000 nM; against JMJD2C, not above 100 nM.
Regarding `O=C(O)c1ccncc1NCC1CCOc2cc(Sc3cccs3)ccc21` (stereo not drawn) [Example 49, 3-({[7-(thiophen-2-ylsulfanyl)-3,4-dihydro-2H-1-benzopyran-4-yl]methyl}amino)pyridine-4-carboxylic acid], the IC50 in experiment [1] was in the range of 1000 to 10000 nM; on JMJD2C, 100 to 1000 nM.
Consider `CN(c1cccc(F)c1)c1ccc2c(c1)CCC[C@H]2CNc1cnccc1C(=O)O` [Example 7, 3-({[(1R)-6-[(3-fluorophenyl)(methyl)amino]-1,2,3,4-tetrahydronaphthalen-1-yl]methyl}amino)pyridine-4-carboxylic acid], for which the IC50 in experiment [1] is not above 100 nM; against JMJD2C, 100 to 1000 nM.
For `Cc1cccc(Oc2ccc3c(c2)CCCC3CNc2cnccc2C(=O)O)n1` (stereo not drawn) [Example 56, 3-[({6-[(6-methylpyridin-2-yl)oxy]-1,2,3,4-tetrahydronaphthalen-1-yl}methyl)amino]pyridine-4-carboxylic acid], in that order: 1000 to 10000 nM and 100 to 1000 nM.
